Measured values as given in patent publication US20200270309A1, “MALEIMIDE GROUP-MODIFIED ANGIOGENESIS INHIBITOR HM-1 AND USE THEREOF” (NANJING ANJI BIOLOGICAL TECHNOLOGY CO., LTD, priority 2017, published 2020).
Read-outs that look alike come from different tables or passages of the source. Peptide text beside a SMILES is read from it. * marks the point of attachment. Hexanoyl(6-maleimido) = O=C1C=CC(=O)N1CCCCCC(=O)*; Butanoyl(4-maleimido) = O=C1C=CC(=O)N1CCCC(=O)*; X36 = O=C1C=CC(=O)N1c1ccc(CCCCCCCCCCCC(=O)*)cc1; X39 = O=C1C=CC(=O)N1c1ccc(CCCCCCCCCCC(=O)*)cc1; X20 = O=C1C=CC(=O)N1CCOCCOCCOCCOCCOCCCC(=O)*; X47 = O=C1C=CC(=O)N1c1ccccc1CCCCC(=O)*; X15 = O=C1C=CC(=O)N1CCOCCOCCOCCC(=O)*; X13 = O=C1C=CC(=O)N1CCOCCCCCC(=O)*; X8 = O=C1C=CC(=O)N1CCOCCOCCCC(=O)*; X12 = O=C1C=CC(=O)N1CCOCCCCC(=O)*

Experiment: Half-lives and pharmacokinetic parameters of polypeptides vs HM-1
Conditions: in vivo
[1] = read-out: T1/2β (half-life) (converted)

SMILES | AUC(0-inf) (read-out: AUC0-∞) [ng·h/mL] | clearance (read-out: CL (converted)) [mL/min/kg] | MRT inf (read-out: MRT0-∞) [h] | half-life [1] [h] | AUC(0-inf) [ng·h/mL] | MRT inf [h] | clearance [mL/min/kg] | half-life (T1/2β (half-life)) [h]
C[C@H](NC(=O)CNC(=O)[C@H](CCCNC(=N)N)NC(=O)CCCCCN1C(=O)C=CC1=O)C(=O)N[C@@H](CC(=O)O)C(=O)N[C@@H](CCCNC(=N)N)C(=O)N[C@@H](C)C(=O)NCC(=O)NCC(=O)NCC(=O)NCC(=O)N[C@@H](CCCNC(=N)N)C(=O)NCC(=O)N[C@@H](CC(=O)O)C(=O)O [X5] ({Hexanoyl(6-maleimido)}-RGADRAGGGGRGD-OH) | 27900 ± 7030 | 0.598 | 49.9 ± 13.2 | 34.59 ± 0.29 |  |  |  | 
C[C@H](NC(=O)CNC(=O)[C@H](CCCNC(=N)N)NC(=O)CCCCCCCCCCc1ccc(N2C(=O)C=CC2=O)cc1)C(=O)N[C@@H](CC(=O)O)C(=O)N[C@@H](CCCNC(=N)N)C(=O)N[C@@H](C)C(=O)NCC(=O)NCC(=O)NCC(=O)NCC(=O)N[C@@H](CCCNC(=N)N)C(=O)NCC(=O)N[C@@H](CC(=O)O)C(=O)O [X46] (X39-RGADRAGGGGRGD-OH) |  |  |  |  | 31600 ± 7470 | 56.6 ± 11 | 0.527 | 39.23 ± 0.29
C[C@H](NC(=O)CNC(=O)[C@H](CCCNC(=N)N)NC(=O)CCCOCCOCCOCCOCCOCCN1C(=O)C=CC1=O)C(=O)N[C@@H](CC(=O)O)C(=O)N[C@@H](CCCNC(=N)N)C(=O)N[C@@H](C)C(=O)NCC(=O)NCC(=O)NCC(=O)NCC(=O)N[C@@H](CCCNC(=N)N)C(=O)NCC(=O)N[C@@H](CC(=O)O)C(=O)O [X79] (X20-RGADRAGGGGRGD-OH) |  |  |  |  | 30500 ± 8350 | 54.6 ± 10.2 | 0.547 | 37.87 ± 0.32
C[C@H](NC(=O)CNC(=O)[C@H](CCCNC(=N)N)NC(=O)CCCCc1ccccc1N1C(=O)C=CC1=O)C(=O)N[C@@H](CC(=O)O)C(=O)N[C@@H](CCCNC(=N)N)C(=O)N[C@@H](C)C(=O)NCC(=O)NCC(=O)NCC(=O)NCC(=O)N[C@@H](CCCNC(=N)N)C(=O)NCC(=O)N[C@@H](CC(=O)O)C(=O)O [X16] (X47-RGADRAGGGGRGD-OH) |  |  |  |  | 31400 ± 8390 | 56.3 ± 13.6 | 0.53 | 39 ± 0.24
C[C@H](NC(=O)CNC(=O)[C@H](CCCNC(=N)N)NC(=O)CCCN1C(=O)C=CC1=O)C(=O)N[C@@H](CC(=O)O)C(=O)N[C@@H](CCCNC(=N)N)C(=O)N[C@@H](C)C(=O)NCC(=O)NCC(=O)NCC(=O)NCC(=O)N[C@@H](CCCNC(=N)N)C(=O)NCC(=O)N[C@@H](CC(=O)O)C(=O)O [X3] ({Butanoyl(4-maleimido)}-RGADRAGGGGRGD-OH) | 33800 ± 7660 | 0.493 | 60.5 ± 13.2 | 41.92 ± 0.32 |  |  |  | 
C[C@H](NC(=O)CNC(=O)[C@H](CCCNC(=N)N)NC(=O)CCCCCCCCCCCc1ccc(N2C(=O)C=CC2=O)cc1)C(=O)N[C@@H](CC(=O)O)C(=O)N[C@@H](CCCNC(=N)N)C(=O)N[C@@H](C)C(=O)NCC(=O)NCC(=O)NCC(=O)NCC(=O)N[C@@H](CCCNC(=N)N)C(=O)NCC(=O)N[C@@H](CC(=O)O)C(=O)O [X47] (X36-RGADRAGGGGRGD-OH) |  |  |  |  | 33200 ± 7130 | 59.4 ± 12 | 0.502 | 41.19 ± 0.27

Second part, the compound after the results:

AUC(0-inf) (read-out: AUC0-∞) [ng·h/mL] | clearance (read-out: CL (converted)) [mL/min/kg] | MRT inf (read-out: MRT0-∞) [h] | half-life [1] [h] | AUC(0-inf) [ng·h/mL] | MRT inf [h] | clearance [mL/min/kg] | half-life (T1/2β (half-life)) [h] | SMILES
 |  |  |  | 27900 ± 8180 | 50.1 ± 9.67 | 0.597 | 34.69 ± 0.34 | C[C@H](NC(=O)CNC(=O)[C@H](CCCNC(=N)N)NC(=O)CCCCOCCN1C(=O)C=CC1=O)C(=O)N[C@@H](CC(=O)O)C(=O)N[C@@H](CCCNC(=N)N)C(=O)N[C@@H](C)C(=O)NCC(=O)NCC(=O)NCC(=O)NCC(=O)N[C@@H](CCCNC(=N)N)C(=O)NCC(=O)N[C@@H](CC(=O)O)C(=O)O [X52] (X12-RGADRAGGGGRGD-OH)
 |  |  |  | 32300 ± 7250 | 57.7 ± 13 | 0.517 | 39.97 ± 0.28 | C[C@H](NC(=O)CNC(=O)[C@H](CCCNC(=N)N)NC(=O)CCOCCOCCOCCN1C(=O)C=CC1=O)C(=O)N[C@@H](CC(=O)O)C(=O)N[C@@H](CCCNC(=N)N)C(=O)N[C@@H](C)C(=O)NCC(=O)NCC(=O)NCC(=O)NCC(=O)N[C@@H](CCCNC(=N)N)C(=O)NCC(=O)N[C@@H](CC(=O)O)C(=O)O [X64] (X15-RGADRAGGGGRGD-OH)
 |  |  |  | 31100 ± 7940 | 55.5 ± 12.4 | 0.537 | 38.47 ± 0.24 | C[C@H](NC(=O)CNC(=O)[C@H](CCCNC(=N)N)NC(=O)CCCCCOCCN1C(=O)C=CC1=O)C(=O)N[C@@H](CC(=O)O)C(=O)N[C@@H](CCCNC(=N)N)C(=O)N[C@@H](C)C(=O)NCC(=O)NCC(=O)NCC(=O)NCC(=O)N[C@@H](CCCNC(=N)N)C(=O)NCC(=O)N[C@@H](CC(=O)O)C(=O)O [X53] (X13-RGADRAGGGGRGD-OH)
 |  |  |  | 26200 ± 7810 | 47.9 ± 13.5 | 0.635 | 32.57 ± 0.28 | C[C@H](NC(=O)CNC(=O)[C@H](CCCNC(=N)N)NC(=O)CCCOCCOCCN1C(=O)C=CC1=O)C(=O)N[C@@H](CC(=O)O)C(=O)N[C@@H](CCCNC(=N)N)C(=O)N[C@@H](C)C(=O)NCC(=O)NCC(=O)NCC(=O)NCC(=O)N[C@@H](CCCNC(=N)N)C(=O)NCC(=O)N[C@@H](CC(=O)O)C(=O)O [X58] (X8-RGADRAGGGGRGD-OH)
